Columns and labels:
MCF-7 cells = assay: growth of MCF-7 cells; type: cell-based, human; conditions: 5 microM
Protocol: (§1) Western blotting of p21 protein was performed as described below. […] V is cell lysate from Ha-MuSV-transformed NIH3T3 clone 13-3B-4. M, marker proteins of known molecular weight.
(§2) All breast cancer cell lines were grown in IMEM supplemented with 10% fetal bovine serum, 20 mM HEPES, penicillin-streptomycin, and extra glutamine. Colon carcinoma cell lines were grown in EMEM supplemented with 10% FBS, EMEM, NEAA, HEPES 20 mM, extra glutamine, and penicillin-streptomycin. The cells were grown at 37° C. in humidified incubators in an atmosphere of 5% CO2.
For cell growth experiments, 2-3×10^5 cells/60 mm dish were seeded, and 24 hours later (Day 0), the medium was removed, and fresh medium and the additives were added then and every 48 hours thereafter The compounds of the present invention were added using 100× concentrated stock solutions. At desired times, cell counts in duplicate were performed on a Coulter counter after harvesting the cells with gentle trypsinization.

[1] = system: p21 ras protein (MCF-7 cells); assay: Western blotting of p21 ras protein in MCF-7 cells; type: cell-based, human; conditions: 5 microM
Protocol: as §1
Cellular proteins present in cell extracts were separated by 12% SDS-PAGE and transferred to nitrocellulose sheets in transfer buffer (25 mM Tris, 192 mM glycine, 20% methanol, pH 7.4). Nitrocellulose sheets were washed and first incubated with 3% bovine serum albumin in NTE-NP40 (50 mM Tris-HCl, pH 7.5, 150 mM NaCl, 2 mM EDTA, 0.1% Nonidet P-40) for three hours at 37° C. and then sequentially incubated with medium containing p21 monoclonal antiserum Y13-259 directed against the Ha-MuSV-encoded p21 for sixteen hours at 4° C., rabbit anti-rat IgG for 2.5 hours in an ice-water bath, and 5×10^5 cpm/ml ^125 I-protein A for one hour in an ice-water bath. The nitrocellulose sheets were air-dried and exposed to Kodak XAR film for 12-36 hours at -20° C. Comparison of the resulting autoradiograms with others in which normal rat serum was substituted for p21 monoclonal antibody permitted identification of p21. To provide a reference p21, cell lysates were prepared from NIH 3T3 clone 13-3B-4 that had been transfected with Ha-MuSV DNA.
The levels of p21 protein are expressed relative to the p21 level in the untreated control cells, which is set equal to 1.0 O.D.

[2] = system: R^I cAMP receptor protein (Molt-4); assay: R^I cAMP receptor protein in Molt-4 leukemic cells; type: cell-based, human; conditions: growth-arrested by 8-Cl-adenosine (5 micromol/L)
Excerpt: (§3) M marker proteins of known molecular weight. […] The resulting supernatants were used as cell lysates. […] ND=nondetectable.

[3] = system: breast and colon cancer cell lines; assay: cell cycle progression of breast and colon cancer cell lines; type: cell-based, human; conditions: vs untreated control cells
Protocol: (§4) DNA histograms were generated on FACS II by using the DNA intercalating dye propidium iodide as described by Braylan et al. (Cytometry 2: 337-343, 1982). The percentage of cells in each cycle phase was calculated by using a PDP-11/34 computer and software as described by Neckers et al. (Mol. Cell. Biol. 6: 4244-4250, 1986).
A determination was made whether the reduced cell proliferation observed in the cancer cell lines after treatment with the compounds of the present invention is due to a specific block in one phase of the cell cycle.

[4] = system: LS-174T colon cancer cells; assay: cell cycle analysis, LS-174T; type: cell-based, human; conditions: 8-Cl-adenosine 5 μM, 3 days, two separate experiments
Protocol: as §4
Breast (MCF-7, MDA-MB-231) and colon (LS-174T) cancer cells in
log phase (untreated control) and 3 days after treatment with
(5 μM) were analyzed for DNA content by flow cytometric analysis

c-myc protein = c-myc protein level, Western blotting (FIG. 9B); type: cell-based, human; conditions: growth-arrested by 8-Cl-adenosine (5 micromol/L)
Protocol: The cells were grown in suspension culture in RPMI 1640 medium supplemented with 10% fetal bovine serum, penicillin (50 U/ml), streptomycin ([…]), 10 mmol/L HEPES buffer, and extra glutamine. […] Surface antigen analysis of HL-60 cells was performed by flow cytometry using a panel of monoclonal antibodies reactive with either myeloid cells or monocytic cells. Terminal deoxynucleotidyl transferase (TdT) was assayed by an immunoperoxidase method using a TdT fluorescence kit. Western blotting of c-myc protein was performed using c-myc antibody 15206D11 (Scripps Clinic and Research Foundation, LaJolla, Calif.).
as §3

[5] = system: LS-174T colon cancer line; assay: growth inhibition and release from inhibition, LS-174T (FIG. 3); type: cell-based, human
Protocol: 1×10^5 cells/60 mm dish were seeded, and 24 hours later (Day 0), the medium was removed and fresh medium and additives were added then and every 48 hours thereafter. […] The triplicate cell count for each experimental point never varied by more than 10%.
as §2

[6] = system: two mammary, one lung, and one colon tumor; assay: human tumor xenografts in athymic mice; type: in vivo; conditions: seven day intraperitoneal infusions
Protocol: (§5) Based on the findings with the L1210 leukemia model, the efficacy of the 8-Cl-cAMP-Na+ infusions were evaluated in advanced-stage human tumor xenograft models. Tumor fragments of approximately 14 mg were implanted subcutaneously in athymic CD-1 female mice and seven day intraperitoneal infusions of the cyclic nucleotide were initiated three weeks later when mean tumor weights had reached 300-400 mg. Tumor measurements were recorded on the initial day of treatment (staging day) and one day after treatment was completed (staging day+7), and were used to calculate changes in tumor weights.

murine leukemia L1210 = assay: life span of L1210-inoculated BDF1 mice; type: in vivo, mouse; conditions: for toxicity remark: ip, 24-hr infusion, day 1-5
Excerpt: | Infusions by Harvard pumps.

[7] = system: MDA-MB-231 mammary carcinoma; assay: growth of MDA-MB-231 human mammary tumor xenograft; type: in vivo; conditions: 7 days, staging day
Protocol: as §5
(§6) *Mean tumor weight per group on staging day.
(§7) $Mean tumor weight per group on staging day +7.
(§8) **Change in *test tumor wt (finalinitial)/initial test tumor wt. Used
(§9) where test tumor size was reduced during treatment. Denoted by negative
(§10) $$Change in test tumor wt/change in control tumor wt. Used where test
(§11) tumor size increased during treatment. Denoted by positive value.

MX-1 mammary carcinoma = assay: growth of MX-1 human mammary tumor xenograft; type: in vivo; conditions: 7 days, staging day
Protocol: as §5, §6, §7, §8, §9, §10, §11

LOVO Colon carcinoma = assay: growth of LOVO human colon tumor xenograft; type: in vivo; conditions: 7 days; for Initial Mean Tumor Wt: staging day
Protocol: as §5, §6, §7
(§12) **Change in test tumor wt (final initial)/initial test tumor wt. Used
(§13) where tumor size was reduced during treatment. Denoted by negative value.
as §10, §11

LX-1-Lung carcinoma = assay: growth of LX-1 human lung tumor xenograft; type: in vivo; conditions: 7 days, staging day
Protocol: as §5, §6, §7, §12, §13, §10, §11

human LoVo colon tumors = assay: subcutaneous infusion in athymic NCR-NU mice bearing human LoVo colon tumors; type: in vivo; conditions: s.c. infusion approx. 42 mg/kg/day (1 mg/mouse), seven days
[8] = lethality in non-tumored BDF1 mice, single i.p. injection; type: in vivo, mouse; conditions: qd, day 1; for Toxic deaths, No. killed/No. treated: ip
Excerpt: Influence of 8-Cl-cAMP-Na^+ on the life span of non-tumor
BDF1 mice when delivered i.p. by bolus injection

## Nc1ncnc2c1nc(Cl)n2[C@@H]1O[C@H](CO)[C@@H](O)[C@H]1O [8-Cl-adenosine, reference compound]
MCF-7 cells
  growth inhibition, in words: strong growth inhibition
[1]
  p21 level, in words: did not appreciably affect the p21 level
[2]
  decrease in R^I receptor level: not observed
[3]
  fractions of cells in G1, S and G2/M phases, in words: appreciable increase of the cell population in Gl phase with a marked reduction in S-phase
[4]
  % Cell population in G1: 72,68%
  % Cell population in G2 M: 20,18%
  % Cell population in S: 8,14%
[4]; Homo sapiens, LS174T, 72 h, read-out: % Growth
  activity at 5 µM: 30.3%
c-myc protein
  decrease in c-myc protein level: not observed
[5]
  mechanism of growth inhibition / cell viability: cell killing
[5]; 8-Cl-cAMP 10 microM or 8-Cl-adenosine 5 microM
  cell growth during treatment: marked reduction in cell growth
[5]; after removal of additives
  growth after cessation of treatment: remained growth-inhibited and did not resume their growth up to two weeks

## Nc1ncnc2c1nc(Cl)n2[C@@H]1O[C@@H]2COP(=O)(O)O[C@H]2[C@H]1O [8-Cl-cAMP-Na^+]
[6]
  tumor growth during infusion, in words: tumor stasis during treatment
Murine leukemia L1210; 288 mg/kg, infused
  mice killed (footnote): 2 to 5 mice
Murine leukemia L1210; 288 mg/kg/day
  toxicity remark: toxic
Murine leukemia L1210; 480 mg/kg/day
  toxicity remark: toxic
Murine leukemia L1210; 800 mg/kg/day
  toxicity remark: toxic
Murine leukemia L1210; 800 and 480 mg/kg, infused
  lethality (footnote): lethally toxic for all treated mice
[7]; 37 mg/kg/day ip infusion
  Initial Mean Tumor Wt: 367 mg
[7]; 62 mg/kg/day ip infusion
  Initial Mean Tumor Wt: 375 mg
[7]; 104 mg/kg/day ip infusion
  Initial Mean Tumor Wt: 367 mg
MX-1 mammary carcinoma; 62 mg/kg/day ip infusion
  Initial Mean Tumor Wt: 337 mg
MX-1 mammary carcinoma; 104 mg/kg/day ip infusion
  Initial Mean Tumor Wt: 346 mg
MX-1 mammary carcinoma; 173 mg/kg/day ip infusion
  Initial Mean Tumor Wt: 375 mg
LOVO Colon carcinoma; 37 mg/kg/day ip infusion
  % ΔT/T or % ΔT/ΔC: -01%
  Initial Mean Tumor Wt: 288 mg
LOVO Colon carcinoma; 62 mg/kg/day ip infusion
  % ΔT/T or % ΔT/ΔC: -01%
  Initial Mean Tumor Wt: 293 mg
LOVO Colon carcinoma; 104 mg/kg/day ip infusion
  Initial Mean Tumor Wt: 288 mg
LX-1-Lung carcinoma; 37 mg/kg/day ip infusion
  Initial Mean Tumor Wt: 330 mg
LX-1-Lung carcinoma; 62 mg/kg/day ip infusion
  Initial Mean Tumor Wt: 327 mg
LX-1-Lung carcinoma; 104 mg/kg/day ip infusion
  Initial Mean Tumor Wt: 324 mg
Human LoVo colon tumors
  toxicity: appeared to be toxic
[8]; 22 mg/kg/inj
  Toxic deaths, No. killed/No. treated: 0
[8]; 37 mg/kg/inj
  Toxic deaths, No. killed/No. treated: 0
[8]; 62 mg/kg/inj
  Toxic deaths, No. killed/No. treated: 0
[8]; 104 mg/kg/inj
  Toxic deaths, No. killed/No. treated: 0
[8]; 173 mg/kg
  mice killed (footnote): 2 of 5
[8]; 173 mg/kg/inj
  Toxic deaths, No. killed/No. treated: 2/5
[8]; 288 mg/kg/inj
  Toxic deaths, No. killed/No. treated: 5/5
[8]; 480 mg/kg/inj
  Toxic deaths, No. killed/No. treated: 5/5
[8]; 480 and 288 mg/kg
  lethality (footnote): lethally toxic for all treated mice
[8]; dosages lower than 173 mg/kg
  lethality (footnote): not lethally

Source: patent publication US5902794A (priority 1997, dated 1999)
